Structures are written as SMILES.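 Where inhibition never reached the appropriate level, the endpoint shown equals the highest concentration tested. Otherwise, values were interpolated linearly from a five-concentration, 48-hour dose response in 96-well plates. TGI is the concentration that stops growth completely.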

Holding throughout (assay): NCI-60 cell line screen, 48 h
Assay [1] deals with M19-MEL melanoma.
Assay [2] deals with SNB-78 CNS.
Assay [3] deals with KM20L2 colon.
The subject of assay [4] is RXF-631 renal.
Assay [5] deals with DMS 114 small cell lung.
Assay [6] concerns DMS 273 small cell lung.

`CC(C)(C)c1ccnc(N=C2N=C(Nc3cc(C(C)(C)C)ccn3)c3ccccc32)c1`: the TGI in assay [1] is more than 100 µM; in assay [2], 75 µM; in assay [3] it was 59.6 µM.

Regarding `O=[N+]([O-])c1ccc(-c2csc(=[N+]3CCCCC3)s2)cc1`, the TGI in assay [1] was more than 45.9 µM; in assay [4] it was more than 100 µM; in assay [2], more than 100 µM; in assay [3], more than 100 µM; in assay [5], 8.03 µM; in assay [6] it was more than 100 µM.

For the compound `CC[C@]12C=CCN3CCC4(c5cc([C@@]6(C(=O)OC)CC7CN(CCc8c6[nH]c6ccccc86)CC6CCCCC67)c(OC)cc5N(C)C4[C@](O)(C(=O)OC)C1OC(C)=O)[C@@H]32` (some centres not stated), the TGI is 17.6 µM in assay [1], 18.8 µM in assay [2], less than 0.01 µM in assay [3] and less than 0.01 µM in assay [5].

With `CN(C)CCCNC(=O)N/N=C/c1ccccc1`, the TGI in assay [1], in assay [2], in assay [5] and in assay [6] was more than 100 µM throughout.

The values are drawn from PubChem BioAssay (NCI).
